From patent US20060222706A1 (priority 2005, published 2006)

Assay: small volume in vitro release in 50 ml 0.1N HCl
Assay type: physicochemical
Conditions: 37° C., 150 rpm
Experimental: The formulations were tested for their small volume in vitro release characteristics in 50 ml 0.1N HCl at 37° C. and 150 rpm using the following procedure: III. Instrumentation (or Equivalent) • a. Automated Dissolution System comprising of: • Hanson SR8 Plus Test Station • Hanson Auto Plus Maximiser System Controller • Hanson Auto Plus MultiFill Fraction Collector • b. […] Procedure • Place one weighed capsule in each vessel containing 0.1N HCl and immediately operate the apparatus for 30 min. • Unless otherwise specified, 3 ml samples are withdrawn from each vessel and immediately filtered through PTFE membranes at 15 and 30 min. IV.
The small volume was chosen as a model of the conditions in a fasted stomach.

dissolution under small volume model condition (in words): no dissolution at all
SMILES: CC(C)OC(=O)C(C)(C)Oc1ccc(C(=O)c2ccc(Cl)cc2)cc1 [Micronized Fenofibrate]
